From patent US10392373B2, “Oxazole derivatives that inhibit Syk” (AB Science, priority 2015, dated 2019)

Biological target: T1, SYK kinase (Homo sapiens, UniProt P43405)
T1 construct: SYK kinase was purified as a full length protein in a baculovirus system near homogeneity; made in house
Experiment: In vitro Syk inhibition assay (Kinase TK HTRF, Cisbio)
Format: biochemical
Conditions: full length SYK purified from a baculovirus system; ATP at least twice the Km; room temperature; average of triplicate; read-out: IC50: Concentration inhibiting 50% of protein kinase
Experimental: Protocol Inhibition Assays.
SYK kinase was purified as a full length protein in a baculovirus system near homogeneity. All kinase assays were performed with the Kinase TK (tyrosine kinase) HTRF (Homogeneous Time Resolved Fluorescence) assay developed by Cisbio international. These assays were carried out at room temperature in 96-wells half-area white plates in a final volume of 25 μl of kinase buffer (10 mM MgCl2; 2 mM MnCl2; 50 mM Sodium-HEPES pH 7.8; BRIJ-35 0.01%, 1 μM substrate) containing ATP at a concentration of at least twice the Km for each enzyme and an appropriate amount of recombinant enzyme to ensure a linear reaction rate. Reactions were initiated upon introduction of the enzyme and terminated with the addition of one reaction volume (25 μl) of HTRF detection buffer. Plates were incubated for one hour at room temperature and the time resolved Fluorescence resonance energy transfer signal was measured in a Pherastar FS microplate reader (BMG Labtech). All data are the average of triplicate results with a standard deviation <10%.

Row | SMILES | IC50
1 | CCc1cnc(Nc2cccc(-c3cnc(N4CCNC(=O)C4C)o3)c2)nc1 (centres unmarked) [Compound 016, 4-{5-[3-(5-Ethyl-pyrimidin-2-ylamino)-phenyl]-oxazol-2-yl}-3-methyl-piperazin-2-one] | 1000 to 10000 nM
2 | CC1C(=O)NCCN1c1ncc(-c2cccc(Nc3nccc(C#N)n3)c2)o1 (centres unmarked) [Compound 017, 2-{3-[2-(2-Methyl-3-oxo-piperazin-1-yl)-oxazol-5-yl]-phenylamino}-pyrimidine-4-carbonitrile] | ≤ 100 nM
3 | Cc1ccnc(Nc2cccc(-c3cnc(N4CCNC(=O)[C@H]4C)o3)c2)n1 [Compound 007, (R)-3-Methyl-4-{5-[3-(4-methyl-pyrimidin-2-ylamino)-phenyl]-oxazol-2-yl}-piperazin-2-one] | ≤ 100 nM
4 | CC1C(=O)NCCN1c1ncc(-c2cccc(Nc3nccc(-c4cccs4)n3)c2)o1 (centres unmarked) [Compound 010, 3-Methyl-4-{5-[3-(4-thiophen-2-yl-pyrimidin-2-ylamino)-phenyl]-oxazol-2-yl}-piperazin-2-one] | ≤ 100 nM
5 | CC(C)C1C(=O)NCCN1c1ncc(-c2cccc(Nc3nccc(N4CCN(C)CC4)n3)c2)o1 (centres unmarked) [Compound 035, 3-Isopropyl-4-(5-{3-[4-(4-methyl-piperazin-1-yl)-pyrimidin-2-ylamino]-phenyl}-oxazol-2-yl)-piperazin-2-one] | 1000 to 10000 nM
6 | CCC1C(=O)NCCN1c1ncc(-c2cccc(Nc3nccc(C)n3)c2)o1 (centres unmarked) [Compound 020, 3-Ethyl-4-{5-[3-(4-methyl-pyrimidin-2-ylamino)-phenyl]-oxazol-2-yl}-piperazin-2-one] | ≤ 100 nM
7 | CC1C(=O)NCCN1c1ncc(-c2cccc(Nc3nccc(C4CC4)n3)c2)o1 (centres unmarked) [Compound 041, 4-{5-[3-(4-Cyclopropyl-pyrimidin-2-ylamino)-phenyl]-oxazol-2-yl}-3-methyl-piperazin-2-one] | ≤ 100 nM
8 | CC(C)C1C(=O)NCCN1c1ncc(-c2cccc(Nc3nccc(N4CCCC4)n3)c2)o1 (centres unmarked) [Compound 034, 3-Isopropyl-4-{5-[3-(4-pyrrolidin-1-yl-pyrimidin-2-ylamino)-phenyl]-oxazol-2-yl}-piperazin-2-one] | 1000 to 10000 nM
9 | CC(C)c1ccnc(Nc2cccc(-c3cnc(N4CCNC(=O)C4(C)C)o3)c2)n1 [Compound 023, 4-{5-[3-(4-Isopropyl-pyrimidin-2-ylamino)-phenyl]-oxazol-2-yl}-3,3-dimethyl-piperazin-2-one] | ≤ 100 nM
10 | CC1(C)C(=O)NCCN1c1ncc(-c2cccc(Nc3nccc(C4CC4)n3)c2)o1 [Compound 042, 4-{5-[3-(4-Cyclopropyl-pyrimidin-2-ylamino)-phenyl]-oxazol-2-yl}-3,3-dimethyl-piperazin-2-one] | ≤ 100 nM
11 | Cc1ccnc(Nc2cccc(-c3cnc(N4CCNC(=O)C4(C)C)o3)c2)n1 [Compound 002, 3,3-Dimethyl-4-{5-[3-(4-methyl-pyrimidin-2-ylamino)-phenyl]-oxazol-2-yl}-piperazin-2-one] | ≤ 100 nM
12 | CCC1C(=O)NCCN1c1ncc(-c2cccc(Nc3nccc(C(F)(F)F)n3)c2)o1 (centres unmarked) [Compound 011, 3-Ethyl-4-{5-[3-((4-trifluoromethyl)-pyrimidin-2-ylamino)-phenyl]-oxazol-2-yl}-piperazin-2-one] | ≤ 100 nM
13 | CCc1ccnc(Nc2cccc(-c3cnc(N4CCNC(=O)C4C)o3)c2)n1 (centres unmarked) [Compound 004, 4-{5-[3-(4-Ethyl-pyrimidin-2-ylamino)-phenyl]-oxazol-2-yl}-3-methyl-piperazin-2-one] | ≤ 100 nM
14 | CCCc1cnc(Nc2cccc(-c3cnc(N4CCNC(=O)C4C)o3)c2)nc1 (centres unmarked) [Compound 006, 3-Methyl-4-{5-[3-(5-propyl-pyrimidin-2-ylamino)-phenyl]-oxazol-2-yl}-piperazin-2-one] | 1000 to 10000 nM
15 | Cc1ccnc(Nc2cc(CN(C)C)cc(-c3cnc(N4CCNC(=O)C4(C)C)o3)c2)n1 [Compound 044, 4-{5-[3-Dimethylaminomethyl-5-(4-methyl-pyrimidin-2-ylamino)-phenyl]-oxazol-2-yl}-3,3-dimethyl-piperazin-2-one] | 100 to 1000 nM
16 | CC1C(=O)NCCN1c1ncc(-c2cc(CN3CCOCC3)cc(Nc3nccc(C(F)(F)F)n3)c2)o1 (centres unmarked) [Compound 015, 3-Methyl-4-{5-[3-morpholin-4-ylmethyl-5-((4-trifluoromethyl)-pyrimidin-2-ylamino)-phenyl]-oxazol-2-yl}-piperazin-2-one] | ≤ 100 nM
17 | CCC1C(=O)NCCN1c1ncc(-c2cccc(Nc3nccc(C(C)C)n3)c2)o1 (centres unmarked) [Compound 025, 3-Ethyl-4-{5-[3-(4-isopropyl-pyrimidin-2-ylamino)-phenyl]-oxazol-2-yl}-piperazin-2-one] | ≤ 100 nM
18 | Cc1cnc(Nc2cccc(-c3cnc(N4CCNC(=O)C4(C)C)o3)c2)nc1C [Compound 022, 4-{5-[3-(4,5-Dimethyl-pyrimidin-2-ylamino)-phenyl]-oxazol-2-yl}-3,3-dimethyl-piperazin-2-one] | 1000 to 10000 nM

Row | SMILES | IC50
19 | Cc1ccnc(Nc2cccc(-c3cnc(N4CCNC(=O)C4C)o3)c2)n1 (centres unmarked) [Compound 001, 3-Methyl-4-{5-[3-(4-methyl-pyrimidin-2-ylamino)-phenyl]-oxazol-2-yl}-piperazin-2-one] | ≤ 100 nM
20 | CC1(C)C(=O)NCCN1c1ncc(-c2cccc(Nc3nccc(N4CCCC4)n3)c2)o1 [Compound 032, 3,3-Dimethyl-4-{5-[3-(4-pyrrolidin-1-yl-pyrimidin-2-ylamino)-phenyl]-oxazol-2-yl}-piperazin-2-one] | 1000 to 10000 nM
21 | Cc1ccnc(Nc2cc(CN3CCCC3)cc(-c3cnc(N4CCNC(=O)C4(C)C)o3)c2)n1 [Compound 045, 3,3-Dimethyl-4-{5-[3-(4-methyl-pyrimidin-2-ylamino)-5-pyrrolidin-1-ylmethyl-phenyl]-oxazol-2-yl}-piperazin-2-one] | 100 to 1000 nM
22 | CC1C(=O)NCCN1c1ncc(-c2cc(CN3CCOCC3)cc(Nc3nccc(C#N)n3)c2)o1 (centres unmarked) [Compound 008, 2-{3-[2-(2-Methyl-3-oxo-piperazin-1-yl)-oxazol-5-yl]-5-(morpholin-4-ylmethyl)-phenylamino}-pyrimidine-4-carbonitrile] | ≤ 100 nM
23 | CC(C)c1ccnc(Nc2cccc(-c3cnc(N4CCNC(=O)C4C(C)C)o3)c2)n1 (centres unmarked) [Compound 036, 3-Isopropyl-4-{5-[3-(4-isopropyl-pyrimidin-2-ylamino)-phenyl]-oxazol-2-yl}-piperazin-2-one] | ≤ 100 nM
24 | COc1ccnc(Nc2cccc(-c3cnc(N4CCNC(=O)C4C)o3)c2)n1 (centres unmarked) [Compound 013, 4-{5-[3-(4-Methoxy-pyrimidin-2-ylamino)-phenyl]-oxazol-2-yl}-3-methyl-piperazin-2-one] | ≤ 100 nM
25 | CC1(C)C(=O)NCCN1c1ncc(-c2cccc(Nc3nccc(N4CCOCC4)n3)c2)o1 [Compound 030, 3,3-Dimethyl-4-{5-[3-(4-morpholin-4-yl-pyrimidin-2-ylamino)-phenyl]-oxazol-2-yl}-piperazin-2-one] | 100 to 1000 nM
26 | CCc1ccnc(Nc2cccc(-c3cnc(N4CCNC(=O)C4(C)C)o3)c2)n1 [Compound 037, 4-{5-[3-(4-Ethyl-pyrimidin-2-ylamino)-phenyl]-oxazol-2-yl}-3,3-dimethyl-piperazin-2-one] | ≤ 100 nM
27 | Cc1ccnc(Nc2cc(CN3CCOCC3)cc(-c3cnc(N4CCNC(=O)C4(C)C)o3)c2)n1 [Compound 005, 3,3-Dimethyl-4-{5-[3-(4-methyl-pyrimidin-2-ylamino)-5-morpholin-4-ylmethyl-phenyl]-oxazol-2-yl}-piperazin-2-one] | ≤ 100 nM
28 | CC(C)c1ccnc(Nc2cccc(-c3cnc(N4CCNC(=O)C4C)o3)c2)n1 (centres unmarked) [Compound 021, 4-{5-[3-(4-Isopropyl-pyrimidin-2-ylamino)-phenyl]-oxazol-2-yl}-3-methyl-piperazin-2-one] | ≤ 100 nM
29 | CC1C(=O)NCCN1c1ncc(-c2cccc(Nc3nccc(N4CCCC4)n3)c2)o1 (centres unmarked) [Compound 028, 3-Methyl-4-{5-[3-(4-pyrrolidin-1-yl-pyrimidin-2-ylamino)-phenyl]-oxazol-2-yl}-piperazin-2-one] | 100 to 1000 nM
30 | Cc1ccnc(Nc2cccc(-c3cnc(N4CCNC(=O)C4CCO)o3)c2)n1 (centres unmarked) [Compound 024, 3-(2-Hydroxy-ethyl)-4-{5-[3-(4-methyl-pyrimidin-2-ylamino)-phenyl]-oxazol-2-yl}-piperazin-2-one] | 100 to 1000 nM
31 | Cc1ccnc(Nc2cccc(-c3cnc(N4CCNC(=O)[C@@H]4C(C)C)o3)c2)n1 [Compound 039, (S)-3-Isopropyl-4-{5-[3-(4-methyl-pyrimidin-2-ylamino)-phenyl]-oxazol-2-yl}-piperazin-2-one] | 100 to 1000 nM
32 | Cc1ccnc(Nc2cc(CN3CCOCC3)cc(-c3cnc(N4CCNC(=O)C4C)o3)c2)n1 (centres unmarked) [Compound 014, 3-Methyl-4-{5-[3-(4-methyl-pyrimidin-2-ylamino)-5-morpholin-4-ylmethyl-phenyl]-oxazol-2-yl}-piperazin-2-one] | 100 to 1000 nM
33 | Cc1ccnc(Nc2cccc(-c3cnc(N4CCNC(=O)[C@@H]4C)o3)c2)n1 [Compound 019, (S)-3-Methyl-4-{5-[3-(4-methyl-pyrimidin-2-ylamino)-phenyl]-oxazol-2-yl}-piperazin-2-one] | ≤ 100 nM
34 | CC1C(=O)NCCN1c1ncc(-c2cccc(Nc3nccc(C(F)(F)F)n3)c2)o1 (centres unmarked) [Compound 009, 3-Methyl-4-{5-[3-((4-trifluoromethyl)-pyrimidin-2-ylamino)-phenyl]-oxazol-2-yl}-piperazin-2-one] | ≤ 100 nM
35 | CC(C)C1C(=O)NCCN1c1ncc(-c2cccc(Nc3nccc(C(F)(F)F)n3)c2)o1 (centres unmarked) [Compound 012, 3-Isopropyl-4-{5-[3-((4-trifluoromethyl)-pyrimidin-2-ylamino)-phenyl]-oxazol-2-yl}-piperazin-2-one] | ≤ 100 nM
